Test results reported in PubChem BioAssay (NCI).
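Interpolation was linear, between the two tested concentrations surrounding the appropriate level; five concentrations were tested over 48 hours in 96-well plates. GI50: concentration for 50% inhibition of growth. Definition used: TGI = concentration required for complete inhibition of growth.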

How the values were obtained:
Assay in all cases: NCI-60 cell line screen, 48 h
HOP-92 NSCLC = tested on: HOP-92 NSCLC
EKVX NSCLC = tested on: EKVX NSCLC
OVCAR-8 ovarian = tested on: OVCAR-8 ovarian
COLO 205 colon = tested on: COLO 205 colon
SNB-75 CNS = tested on: SNB-75 CNS
UACC-257 melanoma = tested on: UACC-257 melanoma
SK-MEL-2 melanoma = tested on: SK-MEL-2 melanoma
HCT-116 colon = tested on: HCT-116 colon
DMS 114 small cell lung = tested on: DMS 114 small cell lung
LXFL 529 NSCLC = tested on: LXFL 529 NSCLC

Structure (SMILES) | GI50 (HOP-92 NSCLC) [µM] | TGI (HOP-92 NSCLC) [µM] | GI50 (EKVX NSCLC) [µM] | TGI (EKVX NSCLC) [µM] | GI50 (OVCAR-8 ovarian) [µM] | TGI (OVCAR-8 ovarian) [µM] | GI50 (COLO 205 colon) [µM] | TGI (COLO 205 colon) [µM] | GI50 (SNB-75 CNS) [µM] | TGI (SNB-75 CNS) [µM] | GI50 (UACC-257 melanoma) [µM] | TGI (UACC-257 melanoma) [µM] | GI50 (SK-MEL-2 melanoma) [µM] | TGI (SK-MEL-2 melanoma) [µM] | GI50 (HCT-116 colon) [µM] | TGI (HCT-116 colon) [µM] | TGI (DMS 114 small cell lung) [µM] | TGI (LXFL 529 NSCLC) [µM]
Cc1cc2c(F)c(Oc3ncnn4cc(OC[C@@H](C)OC(=O)[C@H](C)N)c(C)c34)ccc2[nH]1 | 16.6 | 33.5 | 13.5 | 26.9 | 8.96 | 23.1 | 10.7 | 25.1 | 9.42 | 24.6 | 14.6 | 28.1 | 19.9 | 35.3 | 3.38 | 18.9 |  | 
O=C(c1ccccc1)c1c(C(=O)c2ccccc2)c(-c2ccccc2)c2c(-c3ccccc3)sc(-c3ccccc3)c2c1-c1ccccc1 |  | > 100 |  | > 100 |  | > 100 |  | > 100 |  | > 100 |  | > 100 |  |  |  | > 100 | > 100 | > 100
C=C1C(=O)OC2CC3(CO3)C3C(O)C(O)CC3(C)CC12 (stereo not given) |  | 50.7 |  | 37.2 |  | 45.3 |  | 81.2 |  | > 100 |  | > 100 |  | 38.4 |  | 38 |  | 
Cc1[nH]c(/C=C2\C(=O)Nc3ccc(F)cc32)c(C)c1C(=O)NC[C@H](O)CN1CCOCC1 | 1.17 | 6.84 | 8.02 | > 10 | 5.41 | > 10 | 3.41 | > 10 | 7.33 | > 10 | 8.67 | > 10 | 2.16 | 8.68 | 2.42 | > 10 |  | 
O=C(O)c1cc2c(cn1)[nH]c1ccccc12 |  | > 100 |  | > 100 |  | > 100 |  | > 100 |  | > 100 |  | > 100 |  |  |  | > 100 | > 100 | > 100
OCCCCC#Cc1ccccc1C#Cc1ccccc1C(F)(F)F | 6.14 | 18.4 | 12.7 | 26.8 | 13.3 | 31.6 | 17.7 | 33.9 | 18.7 | 35.9 | 17.7 | 31.9 | 15.6 | 32.6 | 6.46 | 21.3 |  | 
O=C1OC(=O)C2C1C1(c3ccccc3)C(c3ccccc3)=C(c3ccccc3)C2(c2ccccc2)S1=O (stereo not given) | > 100 | > 100 | > 100 | > 100 | > 100 | > 100 | > 100 | > 100 | > 100 | > 100 | > 100 | > 100 | > 100 | > 100 | > 100 | > 100 |  | 
O=C1CCC2(C=C(Br)C(=O)C(Br)=C2)O1 | 3.07 | 8.89 | 5.29 | 12.6 | 3.45 | 11.5 | 1.52 | 2.98 | 13.2 | 26 | 3.52 | 9.28 | 15 | 30.3 | 1.69 | 3.12 |  | 
CCN(CC)CCCCCCCNc1c2ccc(Cl)cc2nc2ccc(OC)cc12 | 1.29 | 3.45 | 1.51 | 4.99 | 0.628 | 2.9 | 1.09 | 2.48 | 1.29 | 2.62 | 1.27 | 3.08 | 1.56 | 3.77 | 0.285 | 0.801 |  | 
O=[N+]([O-])C1C2C=CC(C2)[C@H]1c1ccccc1Cl (stereo not given in full) |  | > 75.6 |  | > 100 |  | > 100 |  | > 100 |  | 60.7 |  | > 100 |  | > 100 |  | > 100 |  | > 100
CCN(CC)CCOc1ccc(/C=C2\CC3C4CC=C5C[C@@H](N6CCCC6)CC[C@]5(C)C4CC[C@]3(C)[C@H]2O)cc1OC (stereo not given in full) | 8.14 | 32.7 | 12.9 | > 77.4 | 5.16 | > 40.8 | 5.4 | 23 | 14.6 | > 69.4 | 6.82 | 14.9 | 9.64 | > 100 | 1.38 | 11 |  | 
COc1ccc2ccc([Se]c3ccc4ccc(OC)cc4c3)cc2c1 |  | > 100 |  |  |  | 98.2 |  | > 100 |  | 76.8 |  | > 100 |  | > 100 |  | > 100 | > 100 | > 100
O=C(Nc1ccc(Cl)cc1)c1cc2ccccc2cc1O | 1.41 | 7.77 | 2.98 | > 100 | 3.67 | > 100 | 3.22 | 18.7 | 22.2 | > 100 | 3.25 | 7.91 | 2.87 | 13.1 | 2.19 | 16.5 |  | 
CC(=O)/C=C/c1ccc(C2CC(C)=Nc3c(ccc4c3C(=O)c3ccccc3C4=O)N2)cc1 (stereo not given) |  | > 100 |  | > 100 |  | > 100 |  | > 100 |  | > 100 |  |  |  | > 100 |  | > 100 | > 100 | 
O=C1C(=O)N(c2ccc(Cl)c(Cl)c2)C(=O)C(=O)C1c1nc2ccccc2o1 |  | > 100 |  |  |  | > 100 |  | > 100 |  | > 100 |  | > 100 |  | > 100 |  | > 100 |  | > 100
COc1ccc(/C=C\c2cc(OC)c(OC)c(OC)c2)cc1OCC(=O)Nc1nc2ccc(C(F)(F)F)cc2s1 | 2.88 | 75.6 | 6.25 | > 100 | 3.86 | > 100 | 17.1 | 68 | 1.58 | 6.47 | 40 | > 100 | 3.98 | > 100 | 3.29 | > 100 |  | 
O=C(Nc1ncc(Cc2ccccc2Cl)s1)c1ccc2c(c1)OCCO2 | 4.08 | > 81.8 | 0.663 | > 100 | 0.479 | > 100 | 0.318 | 3.55 | 0.262 | 6.55 | 6.27 | > 82.1 | 0.667 | > 69.6 | 0.335 | > 100 |  | 
